# Measured values: publication PMC9767416, “Discovery of small molecule mechanistic target of rapamycin inhibitors as anti-aging and anti-cancer therapeutics” (Frontiers in Aging Neuroscience, 2022)
# Columns and labels:
# TMZ-U87 cells = test: Time-lapse microscopy with annexin V of TMZ-induced senescent U87; format: cell-based, human; conditions: 0–100 μM, 72 h
# Method: (§1) To obtain ionizing radiation (IR)-induced senescent cells, proliferating RPE-1 cells were exposed to a single dose of X-rays (20 Gy) using Pantak HF160 (Gulmay, Surrey, UK) X-ray instrument equipped with Pantak Seifert HF320 generator, MXR-161 X-ray tube (Comet AG, Flamatt, Switzerland), and an aluminum filter using current 1–10 mA. After irradiation, the cells were cultured for an additional 7 days until the development of the senescent phenotype ([Salovska et al., 2022]). To induce docetaxel-induced senescence (DIS), BJ cells were exposed to 5 nM docetaxel for 7 days, as described previously ([Sapega et al., 2018]). To prepare temozolomide (TMZ)-induced senescence, U87 cells were exposed to 100 μM TMZ for 14 days.
# For auto-monitoring of cells, Incucyte SX1 Live-Cell Analysis System (Sartorius, Göttingen, Germany), located in an incubator maintained at 37°C under a 5% CO2 atmosphere and 95% humidity, was utilized. The images (1,408 × 1,040 pixels at 1.24 microns/pixel) were acquired using a 10× objective lens in phase contrast, red fluorescence (excitation: 585 ± 20 nm, emission: 635 [625, 705] nm, acquisition time: 100 ms) channels every 60 min during 72 h. The first image was acquired 30 min after adding compounds. The images were processed to measure cell confluence using Incucyte software (version 2022A). […]
# [1] = system: docetaxel (DTX)-induced senescent BJ cells; test: Crystal violet and resazurin assays in docetaxel-induced senescent BJ; format: cell-based, human
# Method: as §1, with “To prepare temozolomide (TMZ)-induced senescence, U87 cells were exposed to 100 μM TMZ for 14 days.” left out
# For the crystal violet assay, the cells were washed twice with 150 μL PBS and stained with 30 μL 0.5% (w/v) crystal violet in 20% methanol for 15 mins. […] The absorbance was read at 595 nm using a microplate reader (Envision, PerkinElmer, Waltham, MA, USA). The absorbance of crystal violet in treated cells was expressed as a percentage of absorbance in untreated cells. Each condition was measured at least in triplicate.
# For the resazurin assay, 200 μL of the culture medium of each well was exchanged for 100 μL of resazurin (stock solution 30 mg/mL; Sigma, St. Louis, MO, USA) diluted 10 times in the culture medium, and the cells were incubated at 37°C for 1–3 h. Reading of fluorescence was done using a microplate reader (PerkinElmer, Waltham, MA, USA). […]
# [2] = system: mTORC2 substrate AKT (Ser473 phosphorylation); test: Immunoblot of phospho-AKT (Ser473), mTORC2 activity in cells; format: cell-based, human; conditions: 100 μM; for AKT phosphorylation relative to control cells: after 5 h
# From the text: For immunoblotting, the following primary and secondary antibodies were used: rabbit polyclonal p70 S6 kinase (#9202), rabbit monoclonal phospho-p70 S6 kinase (Thr389) ([…]), rabbit monoclonal AKT kinase (#4691), rabbit monoclonal phospho-AKT kinase (Ser473) ([…]) obtained from Cell Signaling Technology, Inc., Danvers MA, USA; p21waf1 (sc-56335) obtained from Santa Cruz Biotechnology, Inc., Dallas, TX, USA and mouse monoclonal anti-GAPDH (GTX3066) purchased from GeneTex, Inc., Irvine, CA, USA; goat anti-mouse (170-6516) or anti-rabbit IgG (H + L)-HRP conjugate (170-6515) purchased from BioRad, Hercules, CA, USA.
# Cells were harvested 1 and 5 h after treatment. Cells were washed with PBS, harvested into SDS sample lysis buffer (SLB; 2% SDS, 63 mM Tris–HCl, pH 6.8, and 10% glycerol), sonicated, and centrifuged. Protein concentration was determined by BCA assay (Pierce Biotechnology, Rockford, IL, USA); samples were adjusted to equal protein amount (40 μg) with SLB containing dithiothreitol (1% final conc.) and bromophenol blue (0.02% final conc.), and separated by SDS–PAGE in Tris-glycine-SDS buffer (BioRad, 1610772). Proteins were electrotransferred onto a nitrocellulose membrane (0.45 μm NC, Amersham™, GE Healthcare Life Sciences) using wet transfer in Tris-glycine buffer (BioRad, 1810704) with 10% methanol (Sigma, 59304). After blocking with 5% non-fat milk in PBS/Tween-20, proteins were detected using specific antibodies and horseradish peroxidase (HRP)-conjugated secondary antibodies. Peroxidase activity was detected by ECL detection reagents (Thermo Fisher Scientific, Waltham, MA, USA).
# BJ, RPE-1, U87, U373, T98, A172, MDA-MB-231, H1299, and DU-145 cells were exposed to compound 3 (100 μM) for 1 and 5 h and the level of AKT serine 473 (Ser473) phosphorylation was assayed by immunoblotting. […] However, in several cell types (BJ, RPE-1, MDA-MB-231, H1299, and DU-145), the AKT phosphorylation was higher after 5 h of exposure than in control cells (Figure 11).
# [3] = CNS MPO desirability score; conditions: from experimental and calculated data, method of Wager et al. (2016); scale 0-6
# Method: ACDLAbs PhysChem Suite 14.0 software (Advanced Chemistry Development, Inc., Toronto, ON, Canada) was used for the calculation of Mw, tPSA, and HBD values. The CNS MPO score calculation method was described by [Wager et al. (2016)].
# Central nervous system multiparameter optimization desirability score was calculated as described by [Wager et al. (2016)], utilizing all collected experimental and calculated data. This scoring tool was set on ranges of desirable property space and linear transformational functions with values between 0 and 1 (defined as T0 for each property). Rating each parameter equally, the collective score ranges from 0 to 6, while a score higher than 4 is desirable ([Rankovic, 2015]).
smiles,measurement,setting,value
"Nc1ccc(C(=O)Nc2cccc(-c3c[nH]c4ncccc34)c2)cc1O [Compound 3, N-(3-(1H-pyrrolo[2,3-b]pyridin-3-yl)phenyl)-4-amino-3-hydroxybenzamide]","cell phenotype in time-lapse microscopy, annexin V staining",TMZ-U87 cells,loss of cell adhesion followed by cell death
same,selectivity for senescent versus proliferating cells,"[1]; DIS-BJ vs proliferating BJ, crystal violet and resazurin",non-selective manner
same,sensitivity of senescent cells (crystal violet and resazurin),"[1]; DTX-induced senescent BJ, 0–100 μM, 24 h",significantly sensitive
same,effect on Ser473 AKT phosphorylation,"[2]; A172, after 1 h",Transient inhibition
same,effect on Ser473 AKT phosphorylation,"[2]; BJ, after 1 h",Transient inhibition
same,AKT phosphorylation relative to control cells,[2]; BJ,higher
same,effect on Ser473 AKT phosphorylation,"[2]; DU-145, after 1 h",Transient inhibition
same,AKT phosphorylation relative to control cells,[2]; DU-145,higher
same,effect on Ser473 AKT phosphorylation,"[2]; H1299, after 1 h",Transient inhibition
same,AKT phosphorylation relative to control cells,[2]; H1299,higher
same,effect on Ser473 AKT phosphorylation,"[2]; MDA-MB-231, after 1 h",Transient inhibition
same,AKT phosphorylation relative to control cells,[2]; MDA-MB-231,higher
same,effect on Ser473 AKT phosphorylation,"[2]; RPE-1, after 1 h",Transient inhibition
same,AKT phosphorylation relative to control cells,[2]; RPE-1,higher
same,effect on Ser473 AKT phosphorylation,"[2]; T98, after 1 h",Transient inhibition
same,rank of the inhibitory effect on Ser473 AKT phosphorylation among cell lines,"[2]; T98, after 1 h, inhibitory level kept after 5 h",most potent inhibitory effect
same,effect on Ser473 AKT phosphorylation,"[2]; U87, after 1 h",Transient inhibition
same,effect on Ser473 AKT phosphorylation,"[2]; U373, after 1 h",Transient inhibition
same,MPO (CNS MPO score),[3],4.5
